From patent publication US5521315A, “Olefin substituted long chain compounds” (priority 1993, dated 1996)

Assays:
[1] = system: mast cell degranulation; assay: Serotonin release assay (inhibition of mast cell degranulation); format: cell-based; settings: 50 μM; for RELEASE-SPONT / AVERAGE % RELEASE / inhibition at 50 µM: Table 4; for RELEASE-SPONT: average corrected for spontaneous release; for AVERAGE % RELEASE: average of duplicates; for inhibition at 50 µM: Mast cell
Method in brief: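 Cultured mast cells loaded with 3H-serotonin and sensitized with anti-DNP IgE for 18 h at 37 °C, then triggered with 40 ng/ml DNP-BSA for 45 min with compound in PIPES isotonic buffer pH 7.1.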

[2] = system: LPS-mediated release of TNF from monocytes in whole blood; assay: Ex vivo human TNF model (LPS-stimulated whole blood); format: cell-based; settings: lower doses, FIG. 19
Source text: (§1) FIG. 19 illustrates a comparative experiment comparing CT1508, CT1524, CT1534 and CT2501 in an ex vivo human TNF model described herein. This assay is a predictive model for treatment and prevention of septic shock and sepsis syndrome. This model adds LPS to whole blood (normal human volunteers) to trigger a dose-dependent synthesis and extracellular release of TNF according to Desch et al. (Lymphokine Res. 8:141, 1989). The ex vivo model examines whether LPS-mediated release of TNF from monocytes in whole blood can be blocked by an inventive compound.
as §1, with “This example” for “FIG. 19”

[3] = system: human stromal cells; assay: PDGF-stimulated proliferation of human stromal cells; format: cell-based; settings: Homo sapiens, 1 h; 50 ng/ml PDGF-BB; drug one hour prior; FIGS. 15 and 16; read-out: IC50, stromal cell proliferation
Procedure: (§2) This assay is an in vitro model for restenosis and treatment of atherosclerosis and coronary artery disease. Stromal cells were starved in serum-free media for one day and then stimulated with 50 ng/ml PDGF-BB. The drugs were added at the indicated concentrations one hour prior to PDGF stimulation. Tritiated thymidine was added for one day at the time of PDGF stimulation and the cells were harvested and counted by liquid scintillation counting 24 hrs later.
Another assay for measuring activity of the inventive compounds involves determining PDGF (platelet derived growth factor) proliferative response using human-derived stromal cells. […] Two to three days later, the stromal cells are starved in serum-free media. Twenty four hours later, the cells are treated with a stimulating agent, such as PDGF-AA, PDGF-BB or basic FGF (fibroblast growth factor) with or without IL-1α or TNF, and tritiated thymidine. Cell proliferation is determined by liquid scintillation counting.
as §2

[4] = system: CMV promoter activity in transformed (adenovirus) cells; assay: CMV promoter assay (gene transcription and translation; cytotoxicity in transformed cells); format: cell-based
Method in brief: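 Reporter assay in adenovirus-transformed cells, reading CMV promoter-driven gene transcription and translation; activity reflects cytotoxic inhibition of cellular protein synthesis machinery.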

[5] = system: transformed cells (Ras 3T3) and normal 3T3 cells; assay: Cytotoxicity in transformed cells (Ras 3T3) versus normal 3T3 cells; format: cell-based; settings: LD50 comparison; FIG. 17
Procedure: Each inventive compound is investigated for cytotoxicity to determine appropriate doses for biological activity assays and to prevent cytotoxic reactions in in vitro assays when characterizing activity. Cells (e.g., NIH-3T3, Ras transformed 3T3 cells, malignant melanoma LD2 cells, etc.) are added to microtiter plates and drug is added about two days after plating. Cell viability is determined using a fluorescent viability stain (e.g., 2',7'-bis-(2-carboroxyethyl)-5-(and -6)-carboxyfluorescein acetoxymethyl ester, BCECF excitation 488 nm and emission 525 nm) 24, 48 or 72 hours after addition of the drug.
This example illustrates a comparison of cytotoxicity determinations for CT1534 and CT1539 in transformed cells (Ras 3T3) and in normal 3T3 cells to determine the in vitro LD50 value in both cell types and to look for differential cytotoxicity effects between the cell types.

[6] = system: second messenger pathway enzymes in P388 cells (murine monocyte/macrophage line); assay: Changes in lipid mass (DAG, PA) in P388 cells after signal stimulation; format: cell-based; settings: 30 second time point, FIGS. 20-22
Procedure: (§3) FIGS. 20-22 illustrate the effect of one inventive compound (CT1534) on the substates and products of the present second messenger pathway. Various concentrations of CT1534 were incubated with P388 cells (a murine monocyte/macrophage line) and changes in lipid mass determined at 0 time, 30 seconds and 60 seconds after signal stimulation. FIGS. 20-22 show the 30 second time point for two DAG peaks and a PA peak.
as §3, with “This example illustrates” for “FIGS. 20-22 illustrate”

[7] = system: murine lymph node cell (T cell) proliferation; assay: Murine lymph node cell proliferation stimulated by antigen; format: cell-based; settings: Mus musculus, 2 h, drug two hours prior, FIG. 11
Source text: A second immune suppression assay measures a T cell component to the immune reaction. Lymph nodes contain a mixture of cells including T cells, B cells and macrophages. Although the proliferating cells in this assay are T cells, the response is also dependent upon an antigen presenting cell such as a macrophage as well as an elaboration of various immunoregulatory cytokines. Murine T cells will proliferate in vitro in response to a soluble o protein antigen if they are first primed with the antigen in vivo. In vivo priming involves emulsifying the antigen (chicken ovalbumin or OVA) in complete Freunds adjuvant and injecting […] of OVA into both hind footpads of adult Balb/c mice. Fourteen days later the draining lymph nodes (popliteal) are removed and a single cell suspension is prepared in RPMI 1640 supplemented with 10% fetal calf serum. The lymph node cells (200,000) are plated into flat-bottom wells and OVA ([…]) and/or drug is added to appropriate wells and incubated for 5 days. Proliferation is determined and IC50's calculated as above.
This example illustrates the effects of four inventive compounds on inhibition of murine lymph node cell proliferation stimulated by antigen. This assays uses murine T cells that proliferate in vitro in response to a soluble protein antigen that is first used to prime the T cells in vivo. […]

[8] = system: PBMC (peripheral blood mononuclear cells); assay: Two-way mixed lymphocyte reaction (MLR), proliferation of PBMC to allogeneic stimulation; format: cell-based, human; settings: FIGS. 1 and 2
Source text: Various in vitro assays can be used to measure effects of the inventive compounds to module immune activity and have antitumor activity using a variety of cellular types. For example, a mixed lymphocyte reaction (MLR) provides a valuable screening tool to determine biological activity of each inventive compound. In the MLR, PBMCs (peripheral blood mononuclear cells) are obtained by drawing whole blood from healthy volunteers in a heparinized container and diluted with an equal volume of hanks balanced salt solution (HBSS). This mixture is layered on a […] density gradient, such as a Ficoll-Hypaque® gradient (specific gravity 1.08), and centrifuged at 1000×g for 25 minutes at room temperature or cooler. PBMC are obtained from a band at a plasma-Ficoll interface, separated and washed at least twice in a saline solution, such as HBSS. Contaminating red cells are lysed, such as by ACK lysis for 10 min at 37° C., and the PBMCs are washed twice in HBSS. The pellet of purified PBMCs is resuspended in complete medium, such as RPMI 1640 plus 20% human inactivated serum. Proliferative response of PBMC to allogeneic stimulation is determined in a two-way MLR performed in a 96-well microliter plate. Briefly, approximately 10^5 test purified PBMC cells in […] complete medium are co-cultured with approximately 10^5 autologous (control culture) or allogeneic (stimulated culture) PBMC cells, wherein the allogeneic cells are from HLA disparate individuals. Varying doses of compounds (drug) are added at the time of addition of cells to the microtiter plate. The cultures are incubated for 6 days at 37° C. in a 5% CO2 atmosphere. At the conclusion of the incubation tritiated thymidine is added (for example, […] of 40 to 60 Ci/mmole) and proliferation determined by liquid scintillation counting.
This example illustrates a mixed lymphocyte reaction assay of inventive compounds by showing the IC50 value of each compound in this assay and a dose response of several compounds to illustrate an IC50 determination.

[9] = system: PBMC in mixed lymphocyte assay culture; assay: Percent viable cells in mixed lymphocyte assay culture after six days; format: cell-based, human
[10] = system: murine thymocyte; assay: Murine thymocyte stimulated by ConA and IL-2 (T cell immune suppression); format: cell-based; settings: FIGS. 8 and 9
Procedure: A thymocyte costimulator assay is conducted to evaluate the inventive compounds to inhibit activation and proliferation of thymocytes caused by stimulation with Con A and interleukin-1 (IL-1), or […]. Thymuses are obtained from mice (e.g., female Balb/C mice) and the thymuses are removed and dissociated into culture media (e.g., RPMI 1640 without serum supplementation). The dissociated thymus tissue and cell suspension is transferred to centrifuge tubes and allowed to settle, washed with HBSS and resuspended in serum-supplemented culture media (e.g., RPMI 1640 with 10% fetal calf serum). Any contaminating red cells are lysed, and viable cells are resuspended and counted. Thymocytes are plated (e.g., 96-well plates at a density of 2×10^5 cells/well) and a stimulating agent, such as Con A, IL-1 (e.g., IL-1α) or IL-2 is added to the well. The cells are incubated for 4 days at 37° C. On the fourth day, the cells are pulsed with tritiated thymidine and cell proliferation determined. Inventive compounds are added at the time of stimulating agent addition.
A third assay measures an ability of an inventive compound to inhibit IL-2-induced proliferation of murine thymocytes. Thymus glands are obtained from 4-6 week old mice and plated as a single cell suspension into flat bottomed wells in RPMI 1640 medium supplemented with 10% fetal calf serum. The inventive compounds are added to appropriate wells and the cells are incubated for 1-2 hrs. Concanavilin A (ConA, 0.25 mg/ml) and […] (20 ng/ml) are added and the plates are incubated for 4 days. Cell proliferation is determined as above.
FIG. 8 compares T cell immune suppression data of thirteen inventive compounds by comparing their IC50 values in a murine thymocyte stimulated by ConA and IL-2 in vitro model.

| Compound | activity in serotonin release assay [1] | RELEASE-SPONT [1] | AVERAGE % RELEASE [1] | inhibition at 50 µM [1] | inhibition of LPS-mediated TNF release [2] | IC50 [3] | IC50 [4] | differential cytotoxicity, transformed vs normal cells [5] | plateau concentration for inhibition of second messenger signaling ([6]; DAG and PA peaks) | inhibition of second messenger signaling enzymes [6] | IC50 [7] | mixed lymphocyte reaction activity [8] | cytotoxicity in mixed lymphocyte assay culture ([9]; 100 μM, six days of culture) | therapeutic window ([9]; cytotoxicity at 100 μM vs MLR IC50) | T cell immune suppressing activity [10] |
| --- | --- | --- | --- | --- | --- | --- | --- | --- | --- | --- | --- | --- | --- | --- | --- |
| CC/C=C\CCCCCn1c(=O)c2c(ncn2C)n(C)c1=O [CT1508, 1-(6-cis-nonenyl)-3,7-dimethylxanthine] | increases the activity | 3.38% | 19.94% | 57.9% | the most effective agent | < 2 µM | 75 µM | – | – | – | – | – | – | – | – |
| C=CCCCCCn1c(=O)c2c(ncn2C)n(C)c1=O [CT1534, 1-(6-heptenyl)-3,7-dimethylxanthine] | – | 5.47% | 22.02% | 31.9% | – | – | > 500 µM | much more cytotoxic for the transformed cell than the normal cell | around 10 μM | inhibits the enzymes involved in second messenger signaling to an inflammatory stimulus in a dose-response fashion | – | – | – | – | – |
| C=CCCCCCCCCn1c(=O)c2c(ncn2C)n(C)c1=O [CT1563, 1-(9-Decenyl)-3,7-dimethylxanthine] | – | 7.43% | 23.98% | 7.39% | – | – | 50 µM | – | – | – | ~15 µM | showed activity within dose ranges achievable in vivo | the most cytotoxic at 100 μM | significant therapeutic window | potent immune suppressing activity |
